From patent US8765730B2 (Hoffmann-La Roche Inc, priority 2010, dated 2014)

molecular target: T1, human GPBAR1 receptor (Homo sapiens, UniProt Q8TDU6); assay: functional cAMP assay in CHO-dhfr(minus) cells expressing human GPBAR1 receptors; type: cell-based; details: human EC50, functional cAMP assay, 30 min at 30° C.
T1 construct: expressed in transfected cells
T1 sequence (Q8TDU6 1-330): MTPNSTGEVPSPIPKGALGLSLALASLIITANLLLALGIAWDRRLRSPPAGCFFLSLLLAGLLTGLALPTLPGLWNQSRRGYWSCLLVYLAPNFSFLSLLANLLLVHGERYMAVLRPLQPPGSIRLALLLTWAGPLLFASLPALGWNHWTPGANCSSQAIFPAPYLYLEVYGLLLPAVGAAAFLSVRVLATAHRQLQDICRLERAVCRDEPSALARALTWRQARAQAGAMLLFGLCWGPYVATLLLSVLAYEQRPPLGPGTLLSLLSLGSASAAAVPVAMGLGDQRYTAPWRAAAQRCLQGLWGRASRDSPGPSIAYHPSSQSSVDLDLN
Experimental: The final clone was verified by DNA sequence analysis. The plasmid was transfected into CHO cells deficient in dihydrofolate reductase activity (CHO-dhfr−) using Lipofectamine plus (Invitrogen). Clones were isolated in limited dilution conditions and identified by activities in the cAMP assay using lithocholic acid as agonist.
The growth medium was exchanged with Krebs Ringer Bicarbonate buffer with 1 mM IBMX and incubated at 30° C. for 30 min. Compounds were added to a final assay volume of 100 μl and incubated for 30 min at 30° C. […] The time-resolved energy transfer is measured by a TRF reader (Evotec Technologies GmbH, Hamburg Germany), equipped with a ND:YAG laser as excitation source.
EC50 values were determined using Activity Base analysis (ID Business Solution, Limited). […] Specificity for GPBAR1 was tested in non-transfected CHO cells in the same assay as above.

Compound	EC50 [nM]
Cc1ccccc1C(C/C(=N\O)c1ccc(=O)n(C)c1)c1ccc(C(=O)N[C@@H](CO)C(C)C)cc1 (single isomer, unassigned) [Example 306]	511
Cc1cc(Cl)ccc1[C@@H](C/C(=N\O)c1ccc(=O)n(C)c1)c1ccc(-c2ccc(C(=O)O)cc2)cc1 (single isomer, unassigned) [Example 394, (−)-4′-[1-(4-Chloro-2-methyl-phenyl)-3-[(E)-hydroxyimino]-3-(1-methyl-6-oxo-1,6-dihydro-pyridin-3-yl)-propyl]-biphenyl-4-carboxylic acid; compound with triethylamine 1:0.85]	302
Cc1cc(/C(C[C@H](c2ccc(-c3ccc(C(=O)O)cc3)cc2)c2ccc(F)cc2C)=N/O)ccn1 (single isomer, unassigned) [Example 397, (+)-4′-[1-(4-Fluoro-2-methyl-phenyl)-3-[(E)-hydroxyimino]-3-(2-methyl-pyridin-4-yl)-propyl]-biphenyl-4-carboxylic acid; compound with triethylamine 1:0.75]	17
Cc1cc(/C(C[C@@H](c2ccc(-c3ccc(C(=O)O)cc3)cc2)c2ccc(F)cc2C)=N/O)ccn1 (single isomer, unassigned) [Example 398, (−)-4′-[1-(4-Fluoro-2-methyl-phenyl)-3-[(E)-hydroxyimino]-3-(2-methyl-pyridin-4-yl)-propyl]-biphenyl-4-carboxylic acid; compound with triethylamine 1:0.75]	3
Cc1cc(Cl)ccc1[C@H](C/C(=N\O)c1ccc(=O)n(C)c1)c1ccc(-c2ccc(S(N)(=O)=O)cc2)cc1 (single isomer, unassigned) [Example 413, (−)-4′-[1-(4-Chloro-2-methyl-phenyl)-3-[(E)-hydroxyimino]-3-(1-methyl-6-oxo-1,6-dihydro-pyridin-3-yl)-propyl]-biphenyl-4-sulfonic acid amide]	18
Cc1cc(Cl)ccc1[C@@H](C/C(=N\O)c1ccc(=O)n(C)c1)c1ccc(-c2ccc(S(N)(=O)=O)cc2)cc1 (single isomer, unassigned) [Example 414, (+)-4′-[1-(4-Chloro-2-methyl-phenyl)-3-[(E)-hydroxyimino]-3-(1-methyl-6-oxo-1,6-dihydro-pyridin-3-yl)-propyl]-biphenyl-4-sulfonic acid amide]	18
Cc1cc(/C(C[C@H](c2ccc(-c3nnc(CC(=O)O)o3)cc2)c2ccccc2C)=N/O)ccn1 (single isomer, unassigned) [Example 422, (5-{4-[(−)-3-[(E)-Hydroxyimino]-3-(2-methyl-pyridin-4-yl)-1-o-tolyl-propyl]-phenyl}-[1,3,4]oxadiazol-2-yl)-acetic acid]	11
Cc1cc(/C(C[C@H](c2ccc(-c3cn(CC(=O)O)nn3)cc2)c2ccccc2C)=N/O)ccn1 (single isomer, unassigned) [Example 425, (4-{4-[(−)-3-[(E)-Hydroxyimino]-3-(2-methyl-pyridin-4-yl)-1-o-tolyl-propyl]-phenyl}-[1,2,3]triazol-1-yl)-acetic acid]	14
Cc1cc(/C(C[C@H](c2ccc(Br)cc2)c2ccc(F)cc2F)=N/O)ccn1 (single isomer, unassigned) [Example 426, (−)-3-(4-Bromo-phenyl)-3-(2,4-difluoro-phenyl)-1-(2-methyl-pyridin-4-yl)-propan-1-one oxime]	41
Cc1cc(/C(C[C@@H](c2ccc(N3CCC(C(=O)O)CC3)cc2)c2ccc(F)cc2F)=N/O)ccn1 (single isomer, unassigned) [Example 428, 1-{4-[(+)-1-(2,4-Difluoro-phenyl)-3-[(E)-hydroxyimino]-3-(2-methyl-pyridin-4-yl)-propyl]-phenyl}-piperidine-4-carboxylic acid]	18
Cc1cc(/C(C[C@H](c2ccc(N3C[C@@H]4C(C(=O)O)[C@@H]4C3)cc2)c2ccc(F)cc2F)=N/O)ccn1 (single isomer, unassigned) [Example 429]	2

The remaining compounds from weak to strong by EC50, led by results:

EC50 [nM]	Compound
95	Cc1cc(Cl)ccc1[C@H](C/C(=N\O)c1ccc(=O)n(C)c1)c1ccc(-c2ccc(C(=O)O)cc2)cc1 (single isomer, unassigned) [Example 393, (+)-4′-[1-(4-Chloro-2-methyl-phenyl)-3-[(E)-hydroxyimino]-3-(1-methyl-6-oxo-1,6-dihydro-pyridin-3-yl)-propyl]-biphenyl-4-carboxylic acid; compound with triethylamine 1:0.9]
29	Cc1cc(/C(CC(c2ccc(-c3ccc(C(=O)O)cc3)cc2)c2ccc(Cl)cc2C)=N/O)ccn1 (single isomer, unassigned) [Example 396, (−)-4′-[1-(4-Chloro-2-methyl-phenyl)-3-[(E)-hydroxyimino]-3-(2-methyl-pyridin-4-yl)-propyl]-biphenyl-4-carboxylic acid; compound with triethylamine 1:0.7]
18	Cc1cc(Cl)ccc1[C@@H](C/C(=N\O)c1ccc(=O)n(C)c1)c1ccc(-c2ccc(NS(C)(=O)=O)cc2)cc1 (single isomer, unassigned) [Example 416, (+)-N-{4′-[1-(4-Chloro-2-methyl-phenyl)-3-[(E)-hydroxyimino]-3-(1-methyl-6-oxo-1,6-dihydro-pyridin-3-yl)-propyl]-biphenyl-4-yl}-methanesulfonamide]
12	Cc1cc(F)ccc1[C@@H](C/C(=N\O)c1ccc(=O)n(C)c1)c1ccc(-c2ccc(S(N)(=O)=O)cc2)cc1 (single isomer, unassigned) [Example 407, (+)-4′-[1-(4-Fluoro-2-methyl-phenyl)-3-[(E)-hydroxyimino]-3-(1-methyl-6-oxo-1,6-dihydro-pyridin-3-yl)-propyl]-biphenyl-4-sulfonic acid amide]
9	Cc1cc(F)ccc1[C@H](C/C(=N\O)c1ccc(=O)n(C)c1)c1ccc(-c2ccc(S(N)(=O)=O)cc2)cc1 (single isomer, unassigned) [Example 406, (−)-4′-[1-(4-Fluoro-2-methyl-phenyl)-3-[(E)-hydroxyimino]-3-(1-methyl-6-oxo-1,6-dihydro-pyridin-3-yl)-propyl]-biphenyl-4-sulfonic acid amide]
8	Cc1cc(F)ccc1[C@@H](C/C(=N\O)c1ccc(=O)n(C)c1)c1ccc(Br)cc1 (single isomer, unassigned) [Example 405, (+)-5-{3-(4-Bromo-phenyl)-3-(4-fluoro-2-methyl-phenyl)-1-[(E)-hydroxyimino]-propyl}-1-methyl-1H-pyridin-2-one]
5	Cc1cc(F)ccc1[C@H](C/C(=N\O)c1ccc(=O)n(C)c1)c1ccc(Br)cc1 (single isomer, unassigned) [Example 404, (−)-5-{3-(4-Bromo-phenyl)-3-(4-fluoro-2-methyl-phenyl)-1-[(E)-hydroxyimino]-propyl}-1-methyl-1H-pyridin-2-one]
4	Cc1cc(/C(C[C@H](c2ccc(N3CCC(C(=O)O)CC3)cc2)c2ccc(F)cc2F)=N/O)ccn1 (single isomer, unassigned) [Example 427, 1-{4-[(−)-1-(2,4-Difluoro-phenyl)-3-[(E)-hydroxyimino]-3-(2-methyl-pyridin-4-yl)-propyl]-phenyl}-piperidine-4-carboxylic acid]
